Assays:
[1] = test system: D3; conditions: cited from earlier work
[2] = target: T1, D1 (Homo sapiens, UniProt P49895); conditions: competitive inhibitor; read-out: Ki, D1-catalyzed rT3 deiodination; cited from earlier work
T1 sequence (P49895 1-249): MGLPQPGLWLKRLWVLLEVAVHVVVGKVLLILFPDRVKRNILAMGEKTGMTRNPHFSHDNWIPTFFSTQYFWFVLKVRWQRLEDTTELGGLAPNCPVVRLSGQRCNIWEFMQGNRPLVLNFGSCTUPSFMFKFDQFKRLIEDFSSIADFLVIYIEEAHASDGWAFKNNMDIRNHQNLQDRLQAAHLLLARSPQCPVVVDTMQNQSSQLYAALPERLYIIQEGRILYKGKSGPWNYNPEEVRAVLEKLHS

[3] = target: T1, D1; experiment: Inhibition of D1-catalyzed rT3 deiodination; assay type: biochemical; conditions: D1 much more sensitive to inhibition than D3
Text: In addition to those specifically disclosed herein, additional D3 inhibitors can be identified by the generation of analogs or derivatives of known inhibitors, which can be used as lead compounds. […] Based upon such differences, lead compounds can be generated that have excellent specificity for specific deiodinases.

[4] = target: T2, D3 (Homo sapiens, UniProt P55073); conditions: read-out: Ki, D3-catalyzed T3 5 deiodination; competitive inhibitor; cited from earlier work
T2 sequence (P55073 1-304): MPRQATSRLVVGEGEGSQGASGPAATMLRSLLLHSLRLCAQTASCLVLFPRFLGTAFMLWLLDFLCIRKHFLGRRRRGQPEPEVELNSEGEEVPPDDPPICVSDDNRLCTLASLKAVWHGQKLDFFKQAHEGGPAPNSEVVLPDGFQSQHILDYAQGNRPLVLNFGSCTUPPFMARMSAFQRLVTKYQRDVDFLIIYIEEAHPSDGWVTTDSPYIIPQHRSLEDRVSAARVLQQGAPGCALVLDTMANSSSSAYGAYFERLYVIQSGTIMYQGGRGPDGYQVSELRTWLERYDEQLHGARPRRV

[5] = Wild-type mice made hypothyroid with perchlorate, epididymal fat pad weight; assay type: in vivo, mouse; conditions: 0.04% perchlorate for two months, relative weight of epididymal fat pad, P<0.01
Text: Analysis of relative weights (compared to total body weight) of male epididymal (EPI) and female parametrial white adipose tissue (WAT) indicated a significant reduction in adult D3KO mice (20% reduction in males and 35% in females, P<0.001, see FIG. 1). This reduction was more marked in aged D3KO mice (60%, P<0.001). […] These alterations were not due to the moderate hypothyroidism present in the D3KO mouse, as wild-type mice made hypothyroid with 0.04% perchlorate to a degree similar to that in D3KO mice manifested a 15% increase in EPI WAT weight (P<0.01, FIG. 3). Thus, the decreased adiposity of the D3KO mouse is both unexpected and even more striking in degree.

## O=C(O)CI [iodoacetate]
[1]
  D3 inhibitory activity: exhibits D3 inhibitory activity

## CCC(Cc1c(I)cc(I)c(N)c1I)C(=O)O (stereo not drawn) [iopanoic acid]
[1]
  D3 inhibitory activity: effectively inhibit D3 activity

## OC[C@@H](O)[C@@H](O)[C@H](O)[C@@H](O)C=S.[Au] [gold thioglucose]
[2]
  Ki: 0.006 µM
[3]
  difference in Ki between D1 and D3 inhibition: approximately 1000 fold
[4]
  Ki: 5.2 µM

## [O-][Cl+3]([O-])([O-])O [perchlorate]
[5]
  increase in EPI WAT weight: 15%

Source: patent US8304401B2, “Compositions and methods for decreasing type III deiodinase activity to modulate adiposity and blood glucose levels” (Trustees of Dartmouth College, priority 2008, dated 2012)
